These results are taken from patent publication US8450374B2, “Pan-antagonists for the androgen receptor and androgen receptor mutants associated with anti-androgen withdrawal” (priority 2009, dated 2013).

Positions count from the first letter of the chain named. “Also recorded” adds a separate entry of the source.

Data set [1] concerns LNCaP cells. Briefly: LIVE/DEAD cytotoxicity assay. The conditions noted are these: 1 μM, nine days, RPMI + 10% DCC-FBS. It counts as cell-based. As to the method:
FIG. 1. […] The pictures were taken after nine days of incubation in RPMI supplemented with 10% DCC-FBS plus indicated antiandrogens. B and C. Quantitative analysis of images.
Media was changed every 3 days and floating cells were centrifuged down and reseeded into dish. LIVE/DEAD reagent was added after 9 days culturing. Live cells (indicated by green fluorescence) were counted and compared to the number of dead cells (red).

Data set [2] concerns LNCaP cells. Briefly: Clonogenic assay / in vitro selection for antiandrogen resistance. It counts as cell-based. The conditions noted are these: RPMI + 10% DCC-FBS. As to the method:
Clonogenic assays are performed by a modification of the procedure described by Nara et al. (Cancer Research 2003, 63, 149-153). […] Media was changed every three days was and documented weekly. If cells reach 95% confluence, the cells were counted and reseeded at a density of 80,000 cell per well.

A further data set deals with T1, GFP-AR (Homo sapiens, UniProt P10275).
T1 construct: expressed in transfected cells; host or cells: CV-1 monkey kidney cells
T1 sequence (P10275 1-920): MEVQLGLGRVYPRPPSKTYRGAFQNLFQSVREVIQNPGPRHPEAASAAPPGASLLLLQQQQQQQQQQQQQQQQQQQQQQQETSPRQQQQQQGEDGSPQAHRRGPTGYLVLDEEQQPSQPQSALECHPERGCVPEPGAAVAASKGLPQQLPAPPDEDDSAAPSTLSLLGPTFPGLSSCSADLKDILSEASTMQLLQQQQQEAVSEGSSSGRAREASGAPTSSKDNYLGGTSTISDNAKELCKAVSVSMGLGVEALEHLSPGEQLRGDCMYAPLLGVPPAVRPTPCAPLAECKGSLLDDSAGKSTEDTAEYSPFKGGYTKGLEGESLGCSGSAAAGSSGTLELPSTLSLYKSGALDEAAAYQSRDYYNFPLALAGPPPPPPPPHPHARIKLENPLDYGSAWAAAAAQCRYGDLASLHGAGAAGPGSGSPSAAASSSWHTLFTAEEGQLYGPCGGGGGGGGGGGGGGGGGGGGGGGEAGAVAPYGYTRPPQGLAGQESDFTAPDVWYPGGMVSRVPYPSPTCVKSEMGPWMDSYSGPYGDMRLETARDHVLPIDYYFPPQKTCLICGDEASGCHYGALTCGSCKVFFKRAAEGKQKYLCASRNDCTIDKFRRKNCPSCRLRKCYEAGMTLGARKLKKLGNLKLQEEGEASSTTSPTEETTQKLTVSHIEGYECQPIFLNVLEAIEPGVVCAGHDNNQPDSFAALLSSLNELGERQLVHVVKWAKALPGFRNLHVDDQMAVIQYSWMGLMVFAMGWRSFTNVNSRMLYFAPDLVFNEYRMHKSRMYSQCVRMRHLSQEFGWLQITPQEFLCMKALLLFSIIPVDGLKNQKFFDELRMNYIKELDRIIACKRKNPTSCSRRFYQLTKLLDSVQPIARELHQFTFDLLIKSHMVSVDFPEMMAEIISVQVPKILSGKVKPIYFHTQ
Briefly: Nuclear localization of GFP-AR in CV-1 cells. Type of data set: cell-based. The conditions noted are these: 2 h after ligand addition; DHT 10 μM, other ligands 100 μM.

Data set [3] concerns the target T2, AR protein levels in LNCaP cells (Homo sapiens, UniProt P10275, T878A).
T2 construct: endogenous in cells; host or cells: LNCaP
T2 sequence (P10275 1-920 T878A): T1 sequence (P10275 1-920) with T878A
The experiment in a line: AR downregulation by western blot, LNCaP cells. Type of data set: cell-based. The conditions noted are these: LNCaP cells, 10, 50 or 100 μM, 24 h. As to the method: (§1) Compounds that down regulate the levels of AR in prostate cancer may be effective in androgen dependent cells and anti-androgen resistant cells that over express the androgen receptor. […] LNCaP or CRW22RV1 cells were treated with 10 μM, 50 μM or 100 μM compound for 24 h. Cells were harvested and lysed. Cell lysates were analyzed by SDS-PAGE followed by immunostaining with anti-AR and anti-lamin antibodies (see FIGS. 15 and 16).
In general terms: A western blot detects proteins with antibodies after separation by electrophoresis.

The test system of data set [4] is AR protein levels in CRW22 cells. The experiment in a line: AR downregulation by western blot, CRW22RV1 cells. The conditions noted are these: CRW22RV1 cells, 10, 50 or 100 μM, 24 h. It counts as cell-based. How it is done: as §1
For the next data set, the system named is mouse prostates. The experiment in a line: Prostate apoptosis by TUNEL after IP PAN52. The conditions noted are these: 25 mg/kg/day IP, day 3 and day 5, TUNEL. Type of data set: in vivo, Male C57Bl/6 mice. As to the method: FIG. 17. Quantification of apoptotic cells from prostate tissues where mice were treated short-term by intraperitoneal (IP) injection with PAN52 at 25 mg/kg/day versus vehicle control for either 3 days or 5 days (right). Single 20× magnification fields from each of four lobes of mouse prostate glands were counted in each mouse.

Protocol for GFP-AR: Nuclear localization of GFP-AR in CV-1 cells grown in 10% charcoal stripped CCS/DMEM.
CV-1 monkey kidney cells were seeded in a 12 well plate at a concentration of 50,000 cells per well. After 24 h, the cells were transfected with GFP-AR in a solution of Opti-MEM and Lipofectamine 2000, and incubated overnight. The cells were then imaged on a fluorescent microscope, followed by the addition of 6 respective ligands, and control (DMSO vehicle). […] The cells were incubated for two hours and again imaged. The cells were fixed, and stained (DAPI) to image the nucleus.

Turning to `CN(C)CCCOc1cccc(-c2ccccc2S(=O)(=O)CC(C)(O)C(=O)Nc2ccc(C#N)c(C(F)(F)F)c2)c1` (stereo not drawn) [PAN52], the “Viable cells (green) in fluorescence images” value in the data set on LNCaP cells [1] was “almost all cells”. Further, the “Ability to evade resistance in in vitro selections (resistant LNCaP clones)” value in the data set on LNCaP cells [2] is given as “evade resistance”. For the same compound, on GFP-AR, the “Nuclear localization of GFP-AR fluorescence” value is reported as “little to no nuclear localization”. In addition, the “AR protein levels relative to bicalutamide, DHT or DMSO controls” value in data set [3] and in data set [4] was “downregulation of AR protein levels” throughout. In the data set with mouse prostates, the “Apoptosis in prostate compared to control” value is reported as “increase in apoptosis; also recorded: induced rapid apoptosis”.
